From article PMC9960633, “Novel Silver Complexes Based on Phosphanes and Ester Derivatives of Bis(pyrazol-1-yl)acetate Ligands Targeting TrxR: New Promising Chemotherapeutic Tools Relevant to SCLC Management” (International Journal of Molecular Sciences, 2023) come the findings set out here.

The structures appear in SMILES notation. A value given as a limit tells only on which side of the number the result lay.

Assay [1] concerns HCT-15. Put plainly: MTT cytotoxicity, 2D culture, colon carcinoma. Format: cell-based, human. Conditions: HCT-15, 72 h, MTT test. The procedure:
(§1) The Ag(I) complexes 3–5 and the corresponding uncoordinated ligands 1 and 2 were evaluated for their cytotoxic activity against various human cancer cell lines representative of different solid tumors. In particular, the in-house cancer cell panel contained examples of human colon (HCT-15), pancreatic (PSN-1), cervical (A431), breast (MDA-MB-231) and ovarian (2008) carcinoma as well as of SCLC (U1285). For comparison purposes, the cytotoxicity of the reference metal-based chemotherapeutic drug cisplatin was assessed under the same experimental conditions.
(§2) Ag(I) complexes and the corresponding uncoordinated ligands were dissolved in DMSO just before the experiment, and a calculated amount of drug solution was added to the cell growth medium to a final solvent concentration of 0.5%, which had no detectable effects on cell viability. Cisplatin was dissolved in 0.9% sodium chloride solution. MTT (3-(4,5-dimethylthiazol-2-yl)-2,5-diphenyltetrazolium bromide) and cisplatin were obtained from Sigma Chemical Co, St. Louis, MO, USA.
(§3) Human SCLC (U1285), breast (MDA-MB-231), colon (HCT-15), and pancreatic (PSN-1) carcinoma cell lines were obtained by American Type Culture Collection (ATCC, Rockville, MD, USA). A431 are human cervical carcinoma cells kindly provided by Professor F. Zunino (Division of Experimental Oncology B, Istituto Nazionale dei Tumori, Milan, Italy). The 2008 cells and the cisplatin-resistant variant, C13* cells, are human ovarian adenocarcinoma cell lines that were kindly provided by Professor G. Marverti (Department of Biomedical Science of Modena University, Modena, Italy). Cell lines were maintained in the logarithmic phase at 37 °C in a 5% carbon dioxide atmosphere using the following culture media containing 10% fetal calf serum (EuroClone, Milan, Italy), antibiotics (50 units/mL penicillin and 50 μg/mL streptomycin) and 2 mM l-glutamine: (i) RPMI-1640 medium (EuroClone, Milan, Italy) for HCT-15, A431, PSN-1, U1285, 2008 and C13* cells; (ii) DMEM (EuroClone, Milan, Italy) for MDA-MB-231 cells.
(§4) The growth inhibitory effect toward tumor cells was evaluated by means of MTT assay. Briefly, 3–8 × 10^3 cells/well, dependent upon the growth characteristics of the cell line, were seeded in 96-well microplates in growth medium (100 μL). After 24 h, the medium was removed and replaced with a fresh one containing the compound to be studied at the appropriate concentration. Triplicate cultures were established for each treatment. After 72 h, each well was treated with 10 μL of a 5 mg/mL MTT saline solution, and following 5 h of incubation, 100 μL of a sodium dodecyl sulfate (SDS) solution in HCl 0.01 M was added. After overnight incubation, cell growth inhibition was detected by measuring the absorbance of each well at 570 nm using a Bio-Rad 680 microplate reader. Mean absorbance for each drug dose was expressed as a percentage of the control untreated well absorbance and plotted vs. drug concentration. IC50 values, the drug concentrations that reduce the mean absorbance at 570 nm to 50% of those in the untreated control wells, were calculated by the four-parameter logistic (4-PL) model. Evaluation was based on means from at least four independent experiments.

In assay [2] the test system is PSN-1. The assay is described as follows: MTT cytotoxicity, 2D culture, pancreatic carcinoma. Format: cell-based. Particulars: Homo sapiens, PSN1; PSN-1, 72 h, MTT test. The procedure: as §1, §2, §3
The growth inhibitory effect toward tumor cells was evaluated by means of MTT assay. Briefly, 3–8 × 10^3 cells/well, dependent upon the growth characteristics of the cell line, were seeded in 96-well microplates in growth medium (100 μL). After 24 h, the medium was removed and replaced with a fresh one containing the compound to be studied at the appropriate concentration. Triplicate cultures were established for each treatment. […] After overnight incubation, cell growth inhibition was detected by measuring the absorbance of each well at 570 nm using a Bio-Rad 680 microplate reader. Mean absorbance for each drug dose was expressed as a percentage of the control untreated well absorbance and plotted vs. drug concentration. […]

Assay [3] concerns A431. Put plainly: MTT cytotoxicity, 2D culture, cervical carcinoma. The class given is cell-based, human. Particulars: A431, 72 h, MTT test. The procedure:
as §1, §2, §3, §4

Assay [4] has as its system U1285 cancer cell spheroids. The assay is described as follows: 3D spheroid cytotoxicity, acid phosphatase (APH) assay. Conditions: 72 h. The class given is cell-based, human. The procedure:
The in vitro antitumor activity of the newly developed Ag(I) derivatives was also assayed in 3D cell culture models of SCLC cells. Even if the 2D cell cultures are the most employed assays for in vitro screening due to the low cost, simplicity and reliability, two-dimensional methods are unable to reproduce the properties of in vivo solid tumors. In contrast, 3D cell cultures are much more efficient in closely mimicking the heterogeneity and complexity of the tumor mass and therefore are more predictive for in vivo results than conventional 2D cell cultures. On these bases, we tested the activity of the Ag(I) complexes on spheroids obtained from U1285 cells, which were proven to be highly sensitive to their in vitro antitumor activity. SCLC spheroids were treated with the investigated compounds for 72 h, and cell viability was assessed by means of the acid phosphatase (APH) assay.
Spheroids from U1285 cells (3 × 10^3 cells/well) were treated for 72 h with increasing concentrations of tested compounds. The growth inhibitory effect was evaluated by means of the APH assay. IC50 values were calculated from the dose–survival curves by the four-parameter logistic model (p < 0.05). S.D. = standard deviation.
Spheroid cultures were obtained by seeding 2.5 × 10^3 U1285 cancer cells/well in a round-bottom non-treated tissue culture 96-well plate (Greiner Bio-one, Kremsmünster, Austria) in phenol red free RPMI-1640 medium (Sigma Chemical Co., St. Louis, MO, USA) containing 10% fetal calf serum and supplemented with 20% methyl cellulose stock solution.
An APH modified assay was used for determining cell viability in 3D spheroids, as previously described. […] The inhibition of the cell growth induced by the tested complexes was detected by measuring the absorbance of each well at 405 nm, using a Bio-Rad 680 microplate reader. Mean absorbance for each drug dose was expressed as a percentage of the control untreated well absorbance (T/C) and plotted vs. drug concentration. […]

In assay [5] the test system is 2008. Put plainly: MTT cytotoxicity, 2D culture, ovarian carcinoma. Conditions: 2008, 72 h, MTT test. Format: cell-based, human. The procedure:
as §1, §2, §3, §4

The subject of assay [6] is HEK293 cells. Put plainly: MTT cytotoxicity, non-cancerous cells. The class given is cell-based. Conditions: Homo sapiens, 72 h, MTT test. The protocol:
One of the main drawbacks of chemotherapeutic drugs is the possible toxic effect toward non-cancerous cells, and we measured the cytotoxicity of Ag(I) complexes against non-cancerous HEK293 cells (see Table 1). For all Ag(I) complexes, calculated IC50 values were higher than those obtained on average against tumor cells, thus indicating for this class of metal complexes a slightly preferential cytotoxicity against human cancer cells.
as §4

Assay [7] has as its system MDA-MB-231. The assay is described as follows: MTT cytotoxicity, 2D culture, breast carcinoma. Conditions: MDA-MB-231, 72 h, MTT test. Format: cell-based, human. The protocol: as §1, §2, §3, §4
The subject of assay [8] is U1285. The assay is described as follows: MTT cytotoxicity, 2D culture, SCLC. The class given is cell-based, human. Particulars: U1285, 72 h, MTT test. The procedure: as §1, §2, §3, §4
Assay [9] has as its system C13* cells. The assay is described as follows: MTT cytotoxicity, cisplatin-resistant ovarian adenocarcinoma. The class given is cell-based, human. Particulars: 72 h, MTT test.
From the text: The antiproliferative activity of the Ag(I) complexes 3–5 was also investigated in an additional cell line selected for its resistance to cisplatin, the human ovarian adenocarcinoma C13* cells. These cells were suitably selected after a cisplatin chronic treatment and are characterized by several mechanisms accounting for their resistance to cisplatin; these include (i) a reduced intracellular drug accumulation, (ii) high cellular levels of glutathione and metallothioneins, (iii) the enhanced repair of platinum-DNA adducts, and (iv) an overexpression of the Trx system.
Cytotoxicity was assessed after 72 h of drug treatment by MTT test, and the IC50 and RF values (RF = resistance factor, defined as the ratio of the IC50 of resistant cells over the IC50 of sensitive ones) are reported in Table 1.
as §3, §4

The target in assay [10] is T1, TrxR (Homo sapiens, UniProt Q16881).
T1 construct: hampering TrxR activity when tested in U1285 cell cultures; endogenous in cells; host or cells: U1285 human small-cell lung carcinoma cells
T1 sequence (Q16881 151-649 limits assumed): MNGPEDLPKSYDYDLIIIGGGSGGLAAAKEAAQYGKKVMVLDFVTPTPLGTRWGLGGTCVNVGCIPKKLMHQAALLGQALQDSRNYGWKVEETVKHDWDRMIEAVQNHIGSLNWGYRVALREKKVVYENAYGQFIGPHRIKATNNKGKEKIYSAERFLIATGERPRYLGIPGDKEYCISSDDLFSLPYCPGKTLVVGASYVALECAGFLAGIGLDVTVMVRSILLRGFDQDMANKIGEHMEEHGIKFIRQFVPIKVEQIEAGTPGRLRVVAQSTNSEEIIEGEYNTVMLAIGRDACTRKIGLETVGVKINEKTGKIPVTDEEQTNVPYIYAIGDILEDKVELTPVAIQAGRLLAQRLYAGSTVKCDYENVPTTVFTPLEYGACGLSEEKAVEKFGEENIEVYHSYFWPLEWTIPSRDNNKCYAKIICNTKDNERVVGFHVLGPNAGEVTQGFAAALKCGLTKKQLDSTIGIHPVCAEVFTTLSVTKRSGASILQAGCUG
Put plainly: TrxR activity in treated U1285 cells. Format: cell-based. Particulars: 2 µM, 24 h. The protocol:
On the other hand, Ag(I) compounds 4 and 5 were as effective or even better than auranofin in hampering TrxR activity when tested in U1285 cell cultures.
At the end of incubation time, cells were collected, washed with ice-cold PBS and centrifuged at […]. Each sample was then lysed with RIPA buffer modified as follows: 150 mM NaCl, 50 mM Tris–HCl, 1% Triton X-100, 1% SDS, 1% DOC, 1 mM NaF, 1 mM EDTA, and immediately before use, an anti-protease cocktail (Roche, Basel, Switzerland) containing PMSF was added. Samples were tested for TrxR activity as above described.
Figure 2 TrxR inhibition. (A) TrxR1 activity was assayed by measuring NADPH-dependent reduction of DTNB at 412 nm as described in the Experimental Section. (a) 50% inhibition concentration (IC50), Error bars indicate S.D. (B) U1285 cells were incubated for 24 h with the tested compounds (2 µM). Subsequently, cells were washed twice with PBS and lysed. TrxR activity was tested by measuring NADPH-dependent reduction of DTNB at 412 nm. Error bars indicate SD. * p < 0.05; ** p < 0.01.

On to `COC(=O)C(n1cccn1)n1cccn1` [ligand 1, [HC(pz)2COOCH3]], for which the IC50 in [1] (Homo sapiens) was > 50 µM; in assay [2], > 50 µM; in assay [3] (Homo sapiens, A-431), > 50 µM; in assay [4] (Homo sapiens), > 100 µM; in [5] (Homo sapiens), > 50 µM; in [6] it was > 50 µM. Further, the IC50 in assay [7] (Homo sapiens), in assay [8] (Homo sapiens) and in [9] (Homo sapiens) was > 50 µM throughout.
In the case of `C1N2CN3CN1CP(C2)C3` [PTA, 1,3,5-triaza-7-phosphaadamantane, reference compound], the IC50 in [1] (Homo sapiens) was > 100 µM; in assay [2], > 100 µM; in assay [3] (Homo sapiens, A-431) it was > 100 µM; in assay [5] (Homo sapiens), > 100 µM; in assay [6], > 100 µM; in assay [7] (Homo sapiens), > 100 µM. Moreover, the IC50 in [8] (Homo sapiens) and in assay [9] (Homo sapiens) was > 100 µM each time.
Turning to `N.N.[Cl][Pt][Cl]` [cisplatin, reference compound], the IC50 in assay [1] is 15.3 ± 2.6 µM; in assay [3] it was 2.1 ± 0.9 µM; in [4] it was 65.4 ± 1.4 µM; in assay [5], 2.2 ± 1 µM; in [7] it was 30.5 ± 2.6 µM; in assay [8], 9.6 ± 1.2 µM. Half-maximal inhibition in [9] (IC50) required 30.5 ± 2.6 µM.
Consider `COC(=O)C(n1nc(C)cc1C)n1nc(C)cc1C` [ligand 2, [HC(pz^Me2)2COOCH3]], for which the IC50 is > 50 µM in [1] (Homo sapiens); > 50 µM in [2]; > 50 µM in assay [3] (Homo sapiens, A-431); > 100 µM in assay [4] (Homo sapiens); > 50 µM in assay [5] (Homo sapiens); > 50 µM in [6]. For the same molecule, the IC50 in assay [7] (Homo sapiens), in assay [8] (Homo sapiens) and in [9] (Homo sapiens) was > 50 µM in each case.
Take `c1ccc(P(c2ccccc2)c2ccccc2)cc1` [PPh3, triphenylphosphine, reference compound]: the IC50 in assay [1] (Homo sapiens) is > 50 µM; in [2], > 50 µM; in assay [3] (Homo sapiens, A-431), 47.5 ± 1.1 µM; in assay [5] (Homo sapiens) it was > 50 µM; in assay [6], > 100 µM; in assay [7] (Homo sapiens), > 50 µM. The IC50 in assay [8] (Homo sapiens) and in assay [9] (Homo sapiens) was > 50 µM in each case.
As to `CC(=O)OC[C@H]1O[C@@H]([S-])[C@H](OC(C)=O)[C@@H](OC(C)=O)[C@@H]1OC(C)=O.CCP(CC)CC.[Au+]` [auranofin, reference compound], the “decrease of TrxR enzyme activity” value in assay [10] is 62%.
